In data set [1] the test system is uveal melanoma and hematologic cancer cell lines versus the other tested cell lines. Kind of data set: Growth of uveal melanoma, hematological and other cancer cell lines, day 3 and day 7, Cell-titer glo (Example 7). It counts as cell-based.
For data set [2], the system named is Uveal melanoma cell lines (92-1, MP41, MP38, MP46) and non-small cell lung cancer cells (NCIH1299). Kind of data set: 3-day growth inhibition, Cell-titer glow (Example 12). The following applies: 0 to 10 μM, 3 days. It is filed as cell-based.
For data set [3], the system named is uveal melanoma, hematologic cancer, prostate cancer, breast cancer, and Ewing's sarcoma cell lines versus the other tested cell lines. Conditions: 0 to 10 μM; day 3 and day 7.
The test system of the next data set is parental MP41 cells. Kind of data set: 7-day growth inhibition assay, parental cells (Example 14).
Data set [4] can be described thus: Body weight change of tumor-bearing mice (Example 16). Conditions: all treatments, once daily oral gavage, 3 weeks. It counts as in vivo.
Data set [5] relates to PKC inhibitor (PKCi)-resistant MP41 uveal melanoma cells. As to the kind of experiment: 7-day growth inhibition assay, PKC inhibitor-resistant cells (Example 14).
The target in a further data set is BRM (Homo sapiens, UniProt P51531). As to the kind of experiment: biochemical.
Data set [6] relates to Uveal melanoma cell lines (92-1, MEL202, MP41, MP38, MP46), prostate cancer cells (22RV1), acute leukemia cells (EOL1, THP1), and histocytic lymphoma cells …. Kind of data set: 3-day growth inhibition, Cell-titer glow, all cell lines (Example 17). The following applies: 0 to 2 μM (uveal melanoma) or 0 to 1 μM (other cell lines), 3 days. It counts as cell-based.
In data set [7] the test system is 92-1 uveal melanoma cells. Kind of data set: Uveal melanoma tumor growth inhibition in vivo (Example 18). Further details: species or system Nude mice. Conditions: once daily oral gavage, increasing doses, 3 weeks.
Data set [8] is described as follows: Body weight change of tumor-bearing mice (Example 18). It counts as in vivo. The following applies: all treatments, once daily oral gavage, 3 weeks.

Chain of BRM (P51531 whole entry): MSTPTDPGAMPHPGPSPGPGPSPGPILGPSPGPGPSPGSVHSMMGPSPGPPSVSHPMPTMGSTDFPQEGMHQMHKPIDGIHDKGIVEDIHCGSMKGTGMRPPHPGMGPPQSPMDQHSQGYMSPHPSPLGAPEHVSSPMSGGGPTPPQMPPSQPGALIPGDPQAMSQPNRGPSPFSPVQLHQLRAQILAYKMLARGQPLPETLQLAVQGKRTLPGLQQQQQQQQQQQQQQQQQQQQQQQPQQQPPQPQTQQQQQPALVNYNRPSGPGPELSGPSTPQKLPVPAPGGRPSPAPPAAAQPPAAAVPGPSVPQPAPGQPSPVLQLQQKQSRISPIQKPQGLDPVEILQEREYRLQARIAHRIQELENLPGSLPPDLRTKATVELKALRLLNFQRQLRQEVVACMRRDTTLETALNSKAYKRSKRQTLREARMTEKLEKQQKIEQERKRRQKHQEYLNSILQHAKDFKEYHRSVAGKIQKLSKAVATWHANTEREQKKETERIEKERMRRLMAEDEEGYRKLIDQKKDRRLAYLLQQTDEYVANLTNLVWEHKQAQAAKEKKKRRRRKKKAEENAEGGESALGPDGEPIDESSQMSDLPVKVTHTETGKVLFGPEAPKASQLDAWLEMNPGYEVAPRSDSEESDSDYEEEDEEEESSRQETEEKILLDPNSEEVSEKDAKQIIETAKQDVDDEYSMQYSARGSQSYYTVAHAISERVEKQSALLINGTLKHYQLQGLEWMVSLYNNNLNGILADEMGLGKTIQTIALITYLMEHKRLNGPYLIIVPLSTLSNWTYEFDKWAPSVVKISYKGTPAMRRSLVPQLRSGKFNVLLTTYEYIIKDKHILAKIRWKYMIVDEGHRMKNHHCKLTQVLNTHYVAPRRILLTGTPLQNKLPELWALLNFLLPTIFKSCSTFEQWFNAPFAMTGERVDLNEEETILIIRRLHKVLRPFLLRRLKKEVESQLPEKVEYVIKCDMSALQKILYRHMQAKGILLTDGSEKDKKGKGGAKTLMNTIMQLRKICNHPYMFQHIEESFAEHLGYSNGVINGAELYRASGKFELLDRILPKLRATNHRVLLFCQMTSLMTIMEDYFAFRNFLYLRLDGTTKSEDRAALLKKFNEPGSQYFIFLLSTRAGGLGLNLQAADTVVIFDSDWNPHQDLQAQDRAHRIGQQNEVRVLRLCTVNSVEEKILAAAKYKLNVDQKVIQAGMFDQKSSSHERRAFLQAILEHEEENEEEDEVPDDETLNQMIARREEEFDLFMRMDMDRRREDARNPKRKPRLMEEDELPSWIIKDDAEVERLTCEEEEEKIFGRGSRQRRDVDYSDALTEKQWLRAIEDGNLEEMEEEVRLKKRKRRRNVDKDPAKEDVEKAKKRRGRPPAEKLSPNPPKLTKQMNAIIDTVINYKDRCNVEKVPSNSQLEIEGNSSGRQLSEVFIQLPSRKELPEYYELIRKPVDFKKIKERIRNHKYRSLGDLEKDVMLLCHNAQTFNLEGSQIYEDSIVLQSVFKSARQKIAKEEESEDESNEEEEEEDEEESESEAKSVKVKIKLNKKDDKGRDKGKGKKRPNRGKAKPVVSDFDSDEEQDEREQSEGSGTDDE

Consider `CSCC[C@H](NC(=O)c1ccc(N)cc1)C(=O)Nc1nc(-c2cccc(-c3ccncc3)c2)cs1` [Compound A], for which, in data set [1] (0 to 10 μM, day 3 and day 7), the “sensitivity of cell lines to growth inhibition (GI50, FIG. 1)” value is “more sensitive to BRG1/BRM inhibition than the other tested cell lines”. Further, the “duration of growth inhibition” value in data set [1] (uveal melanoma and hematologic cancer cell lines) is “maintained through day 7”.

For the molecule `CSCC[C@H](NC(=O)c1ccn(S(C)(=O)=O)c1)C(=O)Nc1nc(-c2cccc(-c3ccncc3)c2)cs1` [Compound B], the “growth inhibition (FIG. 6)” value in data set [2] is listed as “potent growth inhibition in the cell lines”. Further, the “sensitivity of cell lines to growth inhibition (FIG. 4)” value in data set [3] is listed as “more sensitive to BRG1/BRM inhibition than the other tested cell lines”. In the data set on parental MP41 cells, the “growth inhibition, parental MP41 cell line (FIG. 10)” value was “strong growth inhibition”.

As for `C[C@@H]1CN(c2cccc(-c3csc(NC(=O)CNC(=O)c4ccn(C(C)(C)C)c4)n3)n2)C[C@H](C)O1` [Compound C], the “tolerability, body weight change (FIG. 13)” value in [4] was “well tolerated with no body weight loss observed”.

As for `CC1(N)CCN(c2cccnc2NC(=O)c2nc(-c3ncccc3C(F)(F)F)cnc2N)CC1` [LXS196], the “sensitivity of PKCi-resistant cells relative to parental MP41 cells (FIG. 9, FIG. 10)” value in data set [5] is “could tolerate growth at higher concentrations of LXS196 than could the parental MP41 cell line”.

For orientation: IC50 means the point on the concentration scale where inhibition reaches its midpoint. The low end stands for inhibition by little substance, the high end for a need for much substance. For `[2H]C([2H])([2H])OC([2H])([2H])[C@@H](NC(=O)c1ccn(S(C)(=O)=O)c1)C(=O)Nc1nc(-c2cccc(N3C[C@@H](C)O[C@@H](C)C3)n2)cs1` [N—((R)-1-((4-(6-(cis-2,6-dimethylmorpholino)pyridin-2-yl)thiazol-2-yl)amino)-3-(methoxy-d3)-1-oxopropan-2-yl-3,3-d2)-1-(methylsulfonyl)-1H-pyrrole-3-carboxamide], the IC50 at BRM was 443 nM. This lies in the sub-micromolar range.

Turning to `[2H]C([2H])([2H])OC([2H])([2H])[C@H](NC(=O)c1ccn(S(C)(=O)=O)c1)C(=O)Nc1nc(-c2cccc(N3C[C@@H](C)O[C@@H](C)C3)n2)cs1` [N—((S)-1-((4-(6-(cis-2,6-dimethylmorpholino)pyridin-2-yl)thiazol-2-yl)amino)-3-(methoxy-d3)-1-oxopropan-2-yl-3,3-d2)-1-(methylsulfonyl)-1H-pyrrole-3-carboxamide], at BRM, the IC50 is 4.6 nM.

`COC[C@H](NC(=O)c1ccn(S(C)(=O)=O)c1)C(=O)Nc1nc(-c2cccc(N3C[C@@H](C)O[C@@H](C)C3)n2)cs1` [N—((S)-1-((4-(6-(cis-2,6-dimethylmorpholino)pyridin-2-yl)thiazol-2-yl)amino)-3-methoxy-1-oxopropan-2-yl)-1-(methylsulfonyl)-1H-pyrrole-3-carboxamide]: the “growth inhibition (FIG. 14)” value in [6] is on record as “potent growth inhibition in all the cell lines”. Moreover, the “tumor growth inhibition (FIG. 15)” value in [7] is on record as “tumor growth inhibition in a dose-dependent manner”. The “tolerability based on % body weight change (FIG. 16)” value in data set [8] was “well tolerated”. This molecule also came in with an IC50 against BRM of 3.9 nM.

The values above are taken from patent US11485732B2, “Compounds and uses thereof” (Foghorn Therapeutics Inc., priority 2020, dated 2022).
